Where two headings read alike, the source gives them in different places.

From patent US20090247559A1 (Exelixis, Inc., priority 2007, published 2009) come the findings set out here.

One assay concerns the target CK2 (Homo sapiens, UniProt P68400). As to the kind of experiment: CK2 inhibition, biochemical chemiluminescence holoenzyme assay (Kinase Glo, IC50 determination). The conditions noted are these: Table 1 activity class; symbol given only if active; read-out: CK2 IC50 (Activity C). In a few lines: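 Holoenzyme CK2 assay; compounds pre-incubated with substrate and enzyme, then reacted 150 min at 24-27° C. Remaining ATP measured as luminescence with Kinase Glo, and IC50 derived from the signal.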

A further assay deals with CDC7 (Homo sapiens, UniProt O00311). As to the kind of experiment: CDC7 inhibition, biochemical chemiluminescence assay (Kinase Glo, IC50 determination). Summed up: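 CDC7 enzyme preincubated with compound 10 min at ambient temperature, then ATP mix in Tris Base added; reaction 90 min at 24-27 °C. Remaining ATP quantified by Kinase Glo luminescence to give IC50.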
CDC7, sequence (O00311 whole entry): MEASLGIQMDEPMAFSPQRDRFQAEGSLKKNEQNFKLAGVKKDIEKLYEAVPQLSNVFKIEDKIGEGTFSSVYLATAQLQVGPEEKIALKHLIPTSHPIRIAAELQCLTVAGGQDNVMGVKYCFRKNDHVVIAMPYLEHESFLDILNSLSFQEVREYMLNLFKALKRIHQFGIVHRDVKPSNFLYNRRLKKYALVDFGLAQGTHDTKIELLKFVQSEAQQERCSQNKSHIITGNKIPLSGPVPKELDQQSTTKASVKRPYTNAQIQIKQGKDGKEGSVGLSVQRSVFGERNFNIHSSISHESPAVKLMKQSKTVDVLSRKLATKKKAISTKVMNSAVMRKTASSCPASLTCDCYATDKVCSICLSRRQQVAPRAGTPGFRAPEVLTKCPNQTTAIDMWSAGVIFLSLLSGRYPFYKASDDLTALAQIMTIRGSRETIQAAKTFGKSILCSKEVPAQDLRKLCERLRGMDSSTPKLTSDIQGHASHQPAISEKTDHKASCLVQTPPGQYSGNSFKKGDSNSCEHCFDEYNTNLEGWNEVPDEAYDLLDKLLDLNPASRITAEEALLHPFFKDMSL
CDC7, sequence (Q9UBU7 whole entry partner): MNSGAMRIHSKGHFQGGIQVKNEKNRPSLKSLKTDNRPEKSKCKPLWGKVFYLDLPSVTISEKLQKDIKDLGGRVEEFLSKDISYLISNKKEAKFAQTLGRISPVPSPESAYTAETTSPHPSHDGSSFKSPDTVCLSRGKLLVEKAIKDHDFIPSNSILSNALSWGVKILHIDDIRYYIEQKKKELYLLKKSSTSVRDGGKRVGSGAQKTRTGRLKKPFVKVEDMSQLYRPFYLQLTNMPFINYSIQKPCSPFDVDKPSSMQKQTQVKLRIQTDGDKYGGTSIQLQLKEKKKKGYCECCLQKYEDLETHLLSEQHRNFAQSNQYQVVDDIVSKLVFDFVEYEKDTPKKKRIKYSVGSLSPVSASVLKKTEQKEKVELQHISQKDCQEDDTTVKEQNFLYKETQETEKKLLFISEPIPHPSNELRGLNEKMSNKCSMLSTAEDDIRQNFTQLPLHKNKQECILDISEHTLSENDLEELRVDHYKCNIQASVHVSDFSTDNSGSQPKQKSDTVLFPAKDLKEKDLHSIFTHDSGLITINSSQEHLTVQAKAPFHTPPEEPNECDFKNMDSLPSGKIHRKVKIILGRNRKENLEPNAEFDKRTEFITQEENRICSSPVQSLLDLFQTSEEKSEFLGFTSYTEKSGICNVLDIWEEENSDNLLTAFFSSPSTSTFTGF
Background: Kinase-Glo measures the ATP left after a reaction by luminescence.

Assay [1] has as its target PIM (PIM-1, PIM-2, and/or PIM-3). The assay is described as follows: PIM-1, PIM-2 and PIM-3 inhibition, biochemical chemiluminescence assays (Kinase Glo, IC50 determination). As to conditions: Table 1 activity class; PIM refers to PIM-1, PIM-2, and/or PIM-3; read-out: PIM IC50 (Activity B).
Setting [2] is: Table 1 activity class, symbol given only if active, read-out: CDC7 IC50 (Activity A).
The mark [3] stands for this setting: compounds in Table 1, read-out: CDC7 IC50 value.

CK2, sequence (P68400 whole entry): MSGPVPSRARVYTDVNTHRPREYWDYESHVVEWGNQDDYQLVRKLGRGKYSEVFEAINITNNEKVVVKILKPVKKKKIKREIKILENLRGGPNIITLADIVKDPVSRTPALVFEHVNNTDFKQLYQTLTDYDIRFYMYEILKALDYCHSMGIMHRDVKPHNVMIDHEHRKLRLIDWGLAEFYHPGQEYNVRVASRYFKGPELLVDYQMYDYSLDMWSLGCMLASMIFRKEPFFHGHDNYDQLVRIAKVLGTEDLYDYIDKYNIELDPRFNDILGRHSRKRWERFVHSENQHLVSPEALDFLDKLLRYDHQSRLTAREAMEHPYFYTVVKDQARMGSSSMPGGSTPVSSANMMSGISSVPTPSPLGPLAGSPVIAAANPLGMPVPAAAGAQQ
CK2, sequence (P67870 whole entry partner): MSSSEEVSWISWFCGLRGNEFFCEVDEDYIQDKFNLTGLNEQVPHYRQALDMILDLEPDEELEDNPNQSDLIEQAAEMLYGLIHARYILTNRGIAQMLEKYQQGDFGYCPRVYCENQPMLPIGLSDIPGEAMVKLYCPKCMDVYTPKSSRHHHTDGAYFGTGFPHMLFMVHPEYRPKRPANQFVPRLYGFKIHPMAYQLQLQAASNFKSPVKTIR

On to `O=c1[nH]c(CN2CCC(O)CC2)nc2c1oc1ccc(Br)cc12` [Compound 242, 8-bromo-2-[(4-hydroxypiperidin-1-yl)methyl][1]benzofuro[3,2-d]pyrimidin-4(3H)-one], for which the IC50 at CK2 is under 10 µM; on CDC7 (setting [2]) it was under 10 µM; at CDC7 (setting [3]), under 0.1 µM; in assay [1] it was under 10 µM.

Regarding `O=C(CCN1CCOCC1)Nc1ccc(-c2nc3c(oc4ccc(Br)cc43)c(=O)[nH]2)c(Cl)c1` [Compound 248, N-[4-(8-bromo-4-oxo-3,4-dihydro[1]benzofuro[3,2-d]pyrimidin-2-yl)-3-chlorophenyl]-3-morpholin-4-ylpropanamide], the IC50 (on CK2; at CDC7 (setting [2]); in assay [1]) was under 10 µM throughout.

Regarding `O=c1[nH]c(CNC2CCC2)nc2c1oc1ccc(Br)cc12` [Compound 252, 8-bromo-2-[(cyclobutylamino)methyl][1]benzofuro[3,2-d]pyrimidin-4(3H)-one], the IC50 at CK2 is under 10 µM; at CDC7 (setting [2]), under 10 µM; on CDC7 (setting [3]), under 0.1 µM; in assay [1] it was under 10 µM.

In the case of `O=c1[nH]c(CNCCc2c[nH]cn2)nc2c1oc1ccc(Br)cc12` [Compound 259, 8-bromo-2-({[2-(1H-imidazol-4-yl)ethyl]amino}methyl)[1]benzofuro[3,2-d]pyrimidin-4(3H)-one], the concentration for half-maximal inhibition (IC50) is under 10 µM on CK2, under 10 µM at CDC7 (setting [2]), under 0.1 µM at CDC7 (setting [3]) and under 10 µM in assay [1].

With `O=c1[nH]c(CNCC(O)CO)nc2c1oc1ccc(Br)cc12` (stereo not shown) [Compound 262, 8-bromo-2-{[(2,3-dihydroxypropyl)amino]methyl}[1]benzofuro[3,2-d]pyrimidin-4(3H)-one], the IC50 at CK2 was under 10 µM; at CDC7 (setting [2]), under 10 µM; on CDC7 (setting [3]), under 0.1 µM; in assay [1] it was under 10 µM.

Consider `O=C(NCc1cccc(Cl)c1)C1CCN(Cc2nc3c(oc4ccc(Br)cc43)c(=O)[nH]2)C1` (stereo not shown) [Compound 264, 1-[(8-bromo-4-oxo-3,4-dihydro[1]benzofuro[3,2-d]pyrimidin-2-yl)methyl]-N-[(3-chlorophenyl)methyl]pyrrolidine-3-carboxamide], for which the IC50 (at CK2; at CDC7 (setting [2]); in assay [1]) was under 10 µM throughout.

For the molecule `CNc1cc(-c2nc3c(oc4ccc(Br)cc43)c(=O)[nH]2)c(Cl)cn1` [Compound 265, 8-bromo-2-[5-chloro-2-(methylamino)pyridin-4-yl][1]benzofuro[3,2-d]pyrimidin-4(3H)-one], the IC50 (on CK2; at CDC7 (setting [2]); in assay [1]) was under 10 µM in each case.

Turning to `CCOC(=O)C1CCN(Cc2nc3c(oc4ccc(Br)cc43)c(=O)[nH]2)C1` (stereo not shown) [Compound 269, Ethyl 1-[(8-bromo-4-oxo-3,4-dihydro[1]benzofuro[3,2-d]pyrimidin-2-yl)methyl]pyrrolidine-3-carboxylate], the IC50 was under 10 µM at CK2, under 10 µM at CDC7 (setting [2]), under 0.1 µM at CDC7 (setting [3]) and under 10 µM in assay [1].

As for `NC(=O)C1CCN(Cc2nc3c(oc4ccc(Br)cc43)c(=O)[nH]2)C1` (stereo not shown) [Compound 270, 1-[(8-bromo-4-oxo-3,4-dihydro[1]benzofuro[3,2-d]pyrimidin-2-yl)methyl]pyrrolidine-3-carboxamide], the IC50 was under 10 µM on CK2, under 10 µM at CDC7 (setting [2]), under 0.1 µM on CDC7 (setting [3]) and under 10 µM in assay [1].

In the case of `CN1CCCC1c1nc2c(oc3ccc(Br)cc32)c(=O)[nH]1` (stereo not shown) [Compound 273, 8-Bromo-2-(1-methylpyrrolidin-2-yl)[1]benzofuro[3,2-d]pyrimidin-4(3H)-one], the IC50 on CK2 is under 10 µM; at CDC7 (setting [2]), under 10 µM; at CDC7 (setting [3]), under 0.1 µM; in assay [1], under 10 µM.

As to `O=C(Nc1ccc(-c2nc3c(oc4ccc(Br)cc43)c(=O)[nH]2)c(Cl)c1)c1ccncc1Cl` [Compound 275, N-[4-(8-bromo-4-oxo-3,4-dihydro[1]benzofuro[3,2-d]pyrimidin-2-yl)-3-chlorophenyl]-3-chloropyridine-4-carboxamide], the IC50 (at CK2; at CDC7 (setting [2]); in assay [1]) was under 10 µM throughout.

Consider `O=C(Nc1ccc(-c2nc3c(oc4ccc(Br)cc43)c(=O)[nH]2)c(Cl)c1)c1ccnc(Cl)c1` [Compound 276, N-[4-(8-bromo-4-oxo-3,4-dihydro[1]benzofuro[3,2-d]pyrimidin-2-yl)-3-chlorophenyl]-2-chloropyridine-4-carboxamide], for which the concentration for half-maximal inhibition (IC50) (on CK2; on CDC7 (setting [2]); in assay [1]) was under 10 µM each time.

As to `COCCNCc1nc2c(oc3ccc(Br)cc32)c(=O)[nH]1` [Compound 277, 8-bromo-2-({[2-(methyloxy)ethyl]amino}methyl)[1]benzofuro[3,2-d]pyrimidin-4(3H)-one], the IC50 at CK2 is under 10 µM; at CDC7 (setting [2]), under 10 µM; at CDC7 (setting [3]), under 0.1 µM; in assay [1], under 10 µM.

With `CN(C)CCNc1cc(-c2nc3c(oc4ccc(Br)cc43)c(=O)[nH]2)c(Cl)cn1` [Compound 283, 8-bromo-2-(5-chloro-2-{[2-(dimethylamino)ethyl]amino}pyridin-4-yl)[1]benzofuro[3,2-d]pyrimidin-4(3H)-one], the IC50 (on CK2; on CDC7 (setting [2]); in assay [1]) was under 10 µM each time.

For the molecule `O=c1[nH]c(CN2CCC(CO)C2)nc2c1oc1ccc(Br)cc12` (stereo not shown) [Compound 287, 8-bromo-2-{[3-(hydroxymethyl)pyrrolidin-1-yl]methyl}[1]benzofuro[3,2-d]pyrimidin-4(3H)-one], the IC50 on CK2 was under 10 µM; on CDC7 (setting [2]), under 10 µM; at CDC7 (setting [3]), under 0.1 µM; in assay [1] it was under 10 µM.

As to `CN1CCC(c2nc3c(oc4ccc(Br)cc43)c(=O)[nH]2)C1` (stereo not shown) [Compound 289, 8-bromo-2-(1-methylpyrrolidin-3-yl)[1]benzofuro[3,2-d]pyrimidin-4(3H)-one], the half-inhibitory concentration (IC50) was under 10 µM at CK2, under 10 µM on CDC7 (setting [2]), under 0.1 µM on CDC7 (setting [3]) and under 10 µM in assay [1].

Consider `O=c1[nH]c(C2CCN(Cc3ccncc3)C2)nc2c1oc1ccc(Br)cc12` (stereo not shown) [Compound 290, 8-bromo-2-[1-(pyridin-4-ylmethyl)pyrrolidin-3-yl][1]benzofuro[3,2-d]pyrimidin-4(3H)-one], for which the half-inhibitory concentration (IC50) (on CK2; at CDC7 (setting [2]); in assay [1]) was under 10 µM each time.

With `Cc1ccc(C(=O)Nc2ccc(-c3nc4c(oc5ccc(Br)cc54)c(=O)[nH]3)c(Cl)c2)cn1` [Compound 291, N-[4-(8-bromo-4-oxo-3,4-dihydro[1]benzofuro[3,2-d]pyrimidin-2-yl)-3-chlorophenyl]-6-methylpyridine-3-carboxamide], the half-maximal inhibitory concentration (IC50) (at CK2; at CDC7 (setting [2]); in assay [1]) was under 10 µM throughout.

As to `O=C(Nc1ccc(-c2nc3c(oc4ccc(Br)cc43)c(=O)[nH]2)c(Cl)c1)c1ccccn1` [Compound 293, N-[4-(8-bromo-4-oxo-3,4-dihydro[1]benzofuro[3,2-d]pyrimidin-2-yl)-3-chlorophenyl]pyridine-2-carboxamide], the half-maximal inhibitory concentration (IC50) (on CK2; at CDC7 (setting [2]); in assay [1]) was under 10 µM throughout.

One may read the IC50 as the point on the concentration scale where inhibition reaches its midpoint.
